According to patent US12492337B2, “Fluorescent probe, preparation method therefor and use thereof” (FLUORESCENCE DIAGNOSIS (SHANGHAI) BIOTECH COMPANY, priority 2017, dated 2025):

Tests used:
[1] = Quantum yield of free probe not reacted with protein tag; format: physicochemical
Protocol: (§1) A probe was mixed with a corresponding HaloTag protein tag to obtain a mixed sample. The final concentration of the probe in the mixed sample was 5 μM and the final concentration of the protein tag was 10 μM. The mixed sample was incubated at 37° C. for 1 hour, and the sample was detected using a fluorescence spectrophotometer.

[2] = Viscosity responsiveness: fluorescence intensity in glycerol versus methanol; format: physicochemical; settings: fluorescence intensity in glycerol to that in methanol
Protocol: The above-mentioned viscosity-responsive fluorescent dye means that the fluorescence intensity of the dye responds to the viscosity of the solution. As the viscosity of the solution increases, the fluorescence intensity increases. Optionally, the viscosity-responsive fluorescent dye is an organic dye molecule which, under the same concentration and excitation wavelength, at 25° C. has a ratio • of the maximum fluorescence emission intensity of the dye in glycerol to the fluorescence intensity in methanol of greater than 2, optionally greater than 5, optionally greater than 10. The concentration of the viscosity-responsive dye ranges from 1×10^−7 M to 1×10^−5 M.

HaloTag protein tag = assay: Probe mixed with HaloTag protein tag, fluorescence spectrophotometer (Example 86); format: biochemical; settings: 5 μM probe, 10 μM protein tag, 37° C., 1 hour; for Fluorescence enhancement: fluorescence activation multiple after binding protein tag; for Emission/nm: fluorescence emission wavelength
Protocol: as §1

Structure (SMILES)	The quantum yield of the free probe [1]	ratio [2]	The quantum yield after binding to Halo-tag (HaloTag protein tag)	Fluorescence enhancement (HaloTag protein tag)	Emission/nm (HaloTag protein tag)
CC(C)(C)OC(=O)/C(C#N)=C/c1ccc(N(CCOC(=O)NCCCS(=O)(=O)[O-])CCOC(=O)NCCOCCOCCCCCCCl)cc1.[Na+] [Probe5]	<0.001	790	0.46	1174	480 nm
CN(CCOC(=O)NCCOCCOCCCCCCCl)c1ccc(/C=C(\C#N)C(=O)OC(C)(C)C)cc1 [Probe 1]	<0.001	560	0.52	500	480 nm
CN(CCOC(=O)NCCOCCOCCCCCCCl)c1ccc(/C=C(\C#N)c2nc3ccccc3o2)cc1 [Probe 2]	0.001	410	0.48	410	510 nm
CN(CCOC(=O)NCCOCCOCCCCCCCl)c1ccc(/C=C(\C#N)c2nc3ccccc3s2)cc1 [Probe 3]	0.0011	399	0.45	512	515 nm
CC(C)(C)OC(=O)/C(C#N)=C/c1ccc(N(CCO)CCOC(=O)NCCOCCOCCCCCCCl)cc1 [Probe 4]	<0.001	562	0.42	490	480 nm
CN1C(=O)/C(=C/c2ccc(N(C)CCOC(=O)NCCOCCOCCCCCCCl)cc2)N=C1c1ccccc1 [Probe 6]	<0.001	1183	0.40	989	530 nm
CN1C(=O)/C(=C/c2ccc(N(C)CCOC(=O)NCCOCCOCCCCCCCl)cc2)N=C1/C=C/c1ccccc1 [Probe 7]	<0.001	1455	0.46	1502	580 nm
CN(CCOC(=O)NCCOCCOCCCCCCCl)c1ccc(C2=C(C#N)C(=C(C#N)C#N)OC2(C)C)cc1 [Probe 8]	0.0018	320	0.47	296	535 nm
CN(CCOC(=O)NCCOCCOCCCCCCCl)c1ccc(/C=C(\C#N)C(=O)O)cc1 [Probe 9]	<0.001	851	0.50	745	480 nm
CN(CCOC(=O)NCCOCCOCCCCCCCl)c1cc2sc(/C=C(\C#N)C(=O)OC(C)(C)C)cc2s1 [Probe 10]	<0.001	655	0.42	431	550 nm
CN(CCOC(=O)NCCOCCOCCCCCCCl)c1cc2sc(/C=C(\C#N)c3nc4ccccc4o3)cc2s1 [Probe 11]	0.0013	422	0.46	520	590 nm
CN(CCOC(=O)NCCOCCOCCCCCCCl)c1cc2sc(/C=C(\C#N)C(=O)O)cc2s1 [Probe 12]	0.0012	405	0.41	750	555 nm
CN(CCOC(=O)NCCOCCOCCCCCCCl)c1ccc2cc(/C=C(\C#N)C(=O)OC(C)(C)C)sc2c1 [Probe 13]	<0.001	391	0.56	816	570 nm
CN(CCOC(=O)NCCOCCOCCCCCCCl)c1ccc2cc(/C=C(\C#N)c3nc4ccccc4o3)sc2c1 [Probe 14]	<0.001	560	0.52	771	610 nm
CC(C)(C)OC(=O)/C(C#N)=C/c1cc2ccc(N(CCO)CCOC(=O)NCCOCCOCCCCCCCl)cc2s1 [Probe 15]	<0.001	320	0.53	379	570 nm
CC1=N/C(=C\c2cc3ccc(N(C)CCOC(=O)NCCOCCOCCCCCCCl)cc3s2)C(=O)N1C [Probe 17]	<0.001	402	0.56	498	575 nm

Structure (SMILES)	The quantum yield of the free probe [1]	ratio [2]	The quantum yield after binding to Halo-tag (HaloTag protein tag)	Fluorescence enhancement (HaloTag protein tag)	Emission/nm (HaloTag protein tag)
CN(CCOC(=O)NCCOCCOCCCCCCCl)c1ccc2cc(/C=C(\C#N)C(=O)O)sc2c1 [Probe 18]	0.0017	301	0.51	444	568 nm
CN(CCOC(=O)NCCOCCOCCCCCCCl)c1ccc2nc(/C=C(\C#N)C(=O)OC(C)(C)C)oc2c1 [Probe 19]	0.0012	299	0.53	561	625 nm
CN(CCOC(=O)NCCOCCOCCCCCCCl)c1ccc2nc(/C=C(\C#N)c3nc4ccccc4o3)oc2c1 [Probe 20]	<0.001	341	0.47	612	640 nm
CN(CCOC(=O)NCCOCCOCCCCCCCl)c1ccc2nc(/C=C(\C#N)C(=O)O)oc2c1 [Probe 21]	<0.001	1481	0.48	560	628 nm
CN1C(=O)/C(=C/c2nc3ccc(N(C)CCOC(=O)NCCOCCOCCCCCCCl)cc3o2)N=C1c1ccccc1 [Probe 22]	<0.001	1821	0.36	610	632 nm
CN(CCOC(=O)NCCOCCOCCCCCCCl)c1ccc2nc(/C=C(\C#N)c3nc4ccccc4s3)oc2c1 [Probe 23]	<0.001	1235	0.52	712	637 nm
CN(CCOC(=O)NCCOCCOCCCCCCCl)c1ccc2nc(/C=C(\C#N)C(=O)OC(C)(C)C)sc2c1 [Probe 24]	<0.001	1681	0.52	590	622 nm
CN(CCOC(=O)NCCOCCOCCCCCCCl)c1ccc2nc(/C=C(\C#N)C(=O)O)sc2c1 [Probe 25]	<0.001	1621	0.51	670	620 nm
CN(CCOC(=O)NCCOCCOCCCCCCCl)c1ccc2nc(/C=C(\C#N)C(=O)OC(C)(C)C)ccc2c1 [Probe 26]	<0.001	1123	0.56	910	590 nm
CN(CCOC(=O)NCCOCCOCCCCCCCl)c1ccc2nc(/C=C(\C#N)c3nc4ccccc4o3)ccc2c1 [Probe 27]	<0.001	1134	0.43	665	620 nm
CN(CCOC(=O)NCCOCCOCCCCCCCl)c1ccc(C#C/C=C(\C#N)C(=O)OC(C)(C)C)cc1 [Probe 28]	<0.001	1132	0.41	551	566 nm
CN(CCOC(=O)NCCOCCOCCCCCCCl)c1cc2sc3cc(/C=C(\C#N)C(=O)OC(C)(C)C)sc3c2s1 [Probe 29]	<0.001	998	0.53	621	640 nm
CN(CCOC(=O)NCCOCCOCCCCCCCl)c1cc2sc3cc(/C=C(\C#N)c4nc5ccccc5o4)sc3c2s1 [Probe 30]	<0.001	1125	0.60	535	620 nm
CN(CCOC(=O)NCCOCCOCCCCCCCl)c1cc2sc3cc(/C=C(\C#N)c4nc5ccccc5s4)sc3c2s1 [Probe 31]	<0.001	1135	0.41	875	660 nm
CN(CCOC(=O)NCCOCCOCCCCCCCl)c1ccc2c(c1)sc1cc(/C=C(\C#N)C(=O)OC(C)(C)C)sc12 [Probe 32]	<0.001	997	0.46	638	609 nm
